{
  "source": "patent USRE50319E1",
  "about": "“Compounds and methods for treating cancer” (Dana-Farber Cancer Institute, Inc., priority 2017, dated 2025)",
  "key": {"Alt-EJ repair pathway": {"tested_on": "Alt-EJ repair pathway", "experiment": "GFP reporter assay using EJ2 repair substrate (Alt-EJ)", "type": "cell-based", "method": "PARP inhibitor and ATM inhibitor were used as positive controls.\n(§1) 10 μM concentration of each tested compound was used in the assay. Mitoxantrone and VAND kill cells.\n(§2) 50 μM of each tested compound was used in the assay."}, "POLQ": {"target": "POLQ (Homo sapiens, UniProt O75417)", "sequence (O75417 whole entry)": "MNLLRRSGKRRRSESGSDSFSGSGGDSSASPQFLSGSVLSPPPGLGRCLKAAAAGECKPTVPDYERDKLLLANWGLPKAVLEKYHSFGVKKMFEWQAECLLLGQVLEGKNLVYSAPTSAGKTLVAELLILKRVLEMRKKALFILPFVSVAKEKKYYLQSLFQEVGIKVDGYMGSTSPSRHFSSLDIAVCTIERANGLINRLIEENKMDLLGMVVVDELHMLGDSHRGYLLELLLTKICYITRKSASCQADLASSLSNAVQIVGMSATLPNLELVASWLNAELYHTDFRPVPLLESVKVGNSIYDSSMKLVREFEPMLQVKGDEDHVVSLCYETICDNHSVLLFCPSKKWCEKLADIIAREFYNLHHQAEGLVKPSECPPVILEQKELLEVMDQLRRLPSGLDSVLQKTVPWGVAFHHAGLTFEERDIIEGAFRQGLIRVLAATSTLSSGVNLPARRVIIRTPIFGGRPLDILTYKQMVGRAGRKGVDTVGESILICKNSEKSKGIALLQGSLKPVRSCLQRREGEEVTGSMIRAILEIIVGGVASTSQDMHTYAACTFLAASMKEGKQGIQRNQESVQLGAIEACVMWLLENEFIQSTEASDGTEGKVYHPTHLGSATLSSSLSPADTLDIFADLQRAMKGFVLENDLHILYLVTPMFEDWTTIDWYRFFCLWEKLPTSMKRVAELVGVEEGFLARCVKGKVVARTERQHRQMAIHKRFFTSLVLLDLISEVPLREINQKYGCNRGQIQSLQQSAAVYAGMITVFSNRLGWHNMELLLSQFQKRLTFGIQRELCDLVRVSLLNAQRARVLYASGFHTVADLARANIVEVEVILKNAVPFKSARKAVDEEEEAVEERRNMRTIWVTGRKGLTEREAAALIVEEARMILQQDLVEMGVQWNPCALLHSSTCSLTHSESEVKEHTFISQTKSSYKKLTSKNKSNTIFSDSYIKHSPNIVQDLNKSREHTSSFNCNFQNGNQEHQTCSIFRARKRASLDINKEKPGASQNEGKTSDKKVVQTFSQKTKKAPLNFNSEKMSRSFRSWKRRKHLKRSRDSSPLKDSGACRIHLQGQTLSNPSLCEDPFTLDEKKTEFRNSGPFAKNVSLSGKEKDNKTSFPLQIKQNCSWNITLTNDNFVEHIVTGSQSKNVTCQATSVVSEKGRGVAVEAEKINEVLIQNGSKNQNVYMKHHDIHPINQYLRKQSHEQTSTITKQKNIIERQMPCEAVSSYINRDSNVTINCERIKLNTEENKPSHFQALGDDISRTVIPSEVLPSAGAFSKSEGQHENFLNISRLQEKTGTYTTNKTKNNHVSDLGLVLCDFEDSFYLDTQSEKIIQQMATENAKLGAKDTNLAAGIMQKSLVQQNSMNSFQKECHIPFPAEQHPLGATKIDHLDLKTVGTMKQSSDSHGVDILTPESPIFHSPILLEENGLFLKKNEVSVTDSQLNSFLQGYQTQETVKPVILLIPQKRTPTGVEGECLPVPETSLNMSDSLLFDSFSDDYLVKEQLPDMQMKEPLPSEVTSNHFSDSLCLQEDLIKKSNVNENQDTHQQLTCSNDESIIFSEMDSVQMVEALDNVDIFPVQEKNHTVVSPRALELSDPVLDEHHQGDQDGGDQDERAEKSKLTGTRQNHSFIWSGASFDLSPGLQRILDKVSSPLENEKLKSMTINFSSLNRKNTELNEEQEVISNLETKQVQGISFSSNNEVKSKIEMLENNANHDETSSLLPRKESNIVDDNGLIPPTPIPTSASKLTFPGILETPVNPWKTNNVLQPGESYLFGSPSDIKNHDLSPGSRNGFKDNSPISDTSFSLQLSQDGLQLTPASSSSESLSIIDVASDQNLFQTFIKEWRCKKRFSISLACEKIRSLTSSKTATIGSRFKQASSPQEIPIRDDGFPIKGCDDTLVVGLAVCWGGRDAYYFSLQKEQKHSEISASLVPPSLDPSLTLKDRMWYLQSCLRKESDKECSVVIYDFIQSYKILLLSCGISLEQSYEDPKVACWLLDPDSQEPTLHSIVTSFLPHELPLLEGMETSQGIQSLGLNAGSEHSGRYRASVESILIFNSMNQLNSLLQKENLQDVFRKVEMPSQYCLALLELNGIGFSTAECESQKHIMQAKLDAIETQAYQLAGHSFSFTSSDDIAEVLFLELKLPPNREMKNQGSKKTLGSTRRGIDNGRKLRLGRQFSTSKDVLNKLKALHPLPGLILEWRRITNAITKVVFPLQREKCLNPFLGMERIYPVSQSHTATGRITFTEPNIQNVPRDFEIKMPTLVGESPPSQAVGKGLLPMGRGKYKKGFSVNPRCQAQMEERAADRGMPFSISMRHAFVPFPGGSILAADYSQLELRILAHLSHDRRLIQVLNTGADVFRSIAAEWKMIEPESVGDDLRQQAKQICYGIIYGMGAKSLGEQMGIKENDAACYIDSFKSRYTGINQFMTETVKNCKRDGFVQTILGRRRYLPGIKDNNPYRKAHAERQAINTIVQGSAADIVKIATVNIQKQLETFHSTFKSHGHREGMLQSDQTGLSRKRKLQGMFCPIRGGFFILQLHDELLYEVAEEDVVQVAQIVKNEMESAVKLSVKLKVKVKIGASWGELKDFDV", "experiment": "γ-32P-ATP based radiometric ATPase assay", "type": "biochemical", "details": "for inhibition of POLQ (ATPase) activity: FIG. 2B radiometric ATPase assay", "method": "FIG. 2C is a bar plot showing quantification of the radiometric ATPase assay showing in FIG. 2B. SMARCAL1 was used as a control ATPase to identify inhibitors that show specificity to POLQ.\n100 μM novobiocin was used in the assay. MTX=Mitoxantrone; SUR=Suramin sodium salt; NVB=novobiocin; AUR=Aurintricarboxylic acid; VAND=vandetanib (EGFR inhibitor, negative control)."}, "[1]": {"tested_on": "BRCA1-deficient (HR-deficient) tumor cells", "experiment": "Rapid Cell Titer Glo assay", "type": "cell-based"}, "RAD51 foci": {"tested_on": "RAD51 foci", "experiment": "RAD51 foci formation", "type": "cell-based", "details": "FIG. 11"}, "[2]": {"tested_on": "RPE1-p53−/− BRCA1−/− cells", "experiment": "Apoptosis, Annexin V kit", "type": "cell-based", "details": "FIG. 13, analyzed 4 days after NVB"}, "yH2AX foci": {"tested_on": "yH2AX foci", "experiment": "yH2AX foci formation", "type": "cell-based", "details": "FIG. 12"}, "POLQ ATPase domain": {"target": "POLQ ATPase domain (Homo sapiens, UniProt O75417)", "sequence (O75417 102-554 limits assumed)": "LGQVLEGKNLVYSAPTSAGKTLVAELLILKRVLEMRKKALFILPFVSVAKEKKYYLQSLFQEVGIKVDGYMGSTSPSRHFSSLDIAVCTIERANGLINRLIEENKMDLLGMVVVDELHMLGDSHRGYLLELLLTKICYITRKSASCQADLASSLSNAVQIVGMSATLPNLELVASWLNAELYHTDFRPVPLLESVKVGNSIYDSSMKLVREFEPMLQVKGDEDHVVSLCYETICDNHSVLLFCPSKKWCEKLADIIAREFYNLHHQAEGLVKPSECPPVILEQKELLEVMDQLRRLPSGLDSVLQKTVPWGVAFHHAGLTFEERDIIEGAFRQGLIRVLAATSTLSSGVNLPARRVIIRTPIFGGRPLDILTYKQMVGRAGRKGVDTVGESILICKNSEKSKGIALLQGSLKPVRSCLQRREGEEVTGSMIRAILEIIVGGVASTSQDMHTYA", "experiment": "Pull-down with novobiocin-conjugated sepharose beads, POLQ", "type": "binding", "details": "FIG. 15; novobiocin conjugated to sepharose beads", "source_text": "FIG. 14 contains an image showing that novobiocin was successfully conjugated to sepharose beads.\nThe color in the left tube is attributed to the novobiocin bound to the beads."}, "[3]": {"tested_on": "PARP inhibitor (olaparib) resistant RPE1 cells", "experiment": "PARP inhibitor (olaparib) resistant cell lines", "type": "cell-based", "details": "FIG. 10"}, "[4]": {"tested_on": "BRCA1-deficient tumor cells", "experiment": "Clonogenic survival assay, BRCA1-deficient tumor cells", "type": "cell-based", "details": "FIG. 4, versus isogenic BRCA1-proficient cell line"}, "homologous recombination": {"tested_on": "homologous recombination", "experiment": "Homologous recombination repair assay", "type": "cell-based", "method": "as §1, §2"}, "BRCA1−/− RPE1 cells": {"tested_on": "BRCA1−/− RPE1 cells", "experiment": "Clonogenic survival assay, RPE1 cells", "type": "cell-based", "details": "FIGS. 6 and 7"}},
  "note": "Structures can show the parent of a compound that is named as a salt.",
  "data": [
    {"compound": "COc1cc2c(Nc3ccc(Br)cc3F)ncnc2cc1OCC1CCN(C)CC1", "note": "[VAND, vandetanib]", "values": [
      {"measurement": "cell killing in the repair assay", "setting": "Alt-EJ repair pathway; FIG. 8, 10 μM", "value": "kill cells"},
      {"measurement": "cell killing in the repair assay", "setting": "Alt-EJ repair pathway; FIG. 9, 50 μM", "value": "killed all cells"}
    ]},
    {"compound": "Cc1ccc(C(=O)Nc2ccc(S(=O)(=O)O)c3cc(S(=O)(=O)O)cc(S(=O)(=O)O)c23)cc1NC(=O)c1cccc(NC(=O)Nc2cccc(C(=O)Nc3cc(C(=O)Nc4ccc(S(=O)(=O)O)c5cc(S(=O)(=O)O)cc(S(=O)(=O)O)c45)ccc3C)c2)c1", "note": "[S, Suramin sodium salt]", "values": [
      {"measurement": "inhibition of POLQ (ATPase) activity", "setting": "POLQ", "value": "inhibited POLQ activity"}
    ]},
    {"compound": "O=C1c2c(O)ccc(O)c2C(=O)c2c(NCCNCCO)ccc(NCCNCCO)c21", "note": "[Mitoxantrone]", "values": [
      {"measurement": "cell killing in the repair assay", "setting": "Alt-EJ repair pathway; FIG. 8, 10 μM", "value": "kill cells"},
      {"measurement": "cell killing in the repair assay", "setting": "Alt-EJ repair pathway; FIG. 9, 50 μM", "value": "killed all cells"},
      {"measurement": "inhibition of POLQ (ATPase) activity", "setting": "POLQ", "value": "inhibited POLQ activity"}
    ]},
    {"compound": "O=C(c1cc(Cc2n[nH]c(=O)c3ccccc23)ccc1F)N1CCN(C(=O)C2CC2)CC1", "note": "[olaparib]", "values": [
      {"measurement": "selective killing of BRCA1-deficient (HR-deficient) tumor cells", "setting": "[1]; FIG. 3", "value": "selectively kills BRCA1-deficient (HR-deficient) tumor cells"}
    ]},
    {"compound": "CO[C@@H]1[C@@H](OC(N)=O)[C@@H](O)[C@H](Oc2ccc3c(O)c(NC(=O)c4ccc(O)c(CC=C(C)C)c4)c(=O)oc3c2C)OC1(C)C", "note": "[novobiocin]", "values": [
      {"measurement": "RAD51 foci formation", "setting": "RAD51 foci", "value": "induces RAD51 and yH2AX foci formation"},
      {"measurement": "induction of apoptosis", "setting": "[2]", "value": "induces apoptosis specifically in RPE1-p53−/− BRCA1−/− cells"},
      {"measurement": "inhibition of Alt-EJ", "setting": "Alt-EJ repair pathway; FIG. 2D, EJ2 repair substrate GFP reporter", "value": "inhibited Alt-EJ"},
      {"measurement": "inhibition of alternative end-joining", "setting": "Alt-EJ repair pathway; FIG. 8, 10 μM", "value": "inhibits alternative end-joining"},
      {"measurement": "inhibition of alternative end-joining", "setting": "Alt-EJ repair pathway; FIG. 9, 50 μM", "value": "inhibits alternative end-joining"},
      {"measurement": "yH2AX foci formation", "setting": "yH2AX foci", "value": "induces RAD51 and yH2AX foci formation"},
      {"measurement": "binding / pull-down of POLQ ATPase domain", "setting": "POLQ ATPase domain", "value": "specifically binds to POLQ ATPase domain"},
      {"measurement": "inhibition of POLQ (ATPase) activity", "setting": "POLQ; listed as N", "value": "inhibited POLQ activity"},
      {"measurement": "inhibition of POLQ (ATPase) activity", "setting": "POLQ; listed as Novobiocin", "value": "inhibits the ATPase of POLQ"},
      {"measurement": "specificity to POLQ", "setting": "POLQ; FIG. 2C, SMARCAL1 used as control ATPase", "value": "showed some specificity to POLQ"},
      {"measurement": "inhibition of ATPase activity of POLQ", "setting": "POLQ; FIG. 5, 32P-based ATPase activity assay, 100 μM novobiocin", "value": "specifically inhibits ATPase activity of POLQ"},
      {"measurement": "POLQ ATPase inhibition compared with related ATPases", "setting": "POLQ; versus ATPase activity of SMARCA or CHD1", "value": "inhibits the POLQ ATPase more strongly than it inhibits the ATPase activity of SMARCA or CHD1"},
      {"measurement": "killing of PARP inhibitor resistant RPE1 cells", "setting": "[3]", "value": "kills RPE1 cells that are resistant to the PARP inhibitor"},
      {"measurement": "selective killing of BRCA1-deficient tumor cells", "setting": "[4]", "value": "selectively kills the BRCA1-deficient tumor cells"},
      {"measurement": "selective killing of BRCA1-deficient tumor cells", "setting": "[4]; listed as Novobiocin", "value": "selectively kills BRCA1-deficient tumor cells"},
      {"measurement": "inhibition of homologous recombination", "setting": "homologous recombination; FIG. 8, 10 μM", "value": "not homologous recombination"},
      {"measurement": "inhibition of homologous recombination", "setting": "homologous recombination; FIG. 9, 50 μM", "value": "not homologous recombination"},
      {"measurement": "specific killing of BRCA1−/− RPE1 cells", "setting": "BRCA1−/− RPE1 cells", "value": "specifically kills BRCA1−/− RPE1 cells"},
      {"measurement": "selective killing of BRCA1-deficient (HR-deficient) tumor cells", "setting": "[1]; FIG. 3", "value": "selectively kills BRCA1-deficient (HR-deficient) tumor cells"},
      {"measurement": "selective killing of BRCA1-deficient (HR-deficient) tumor cells", "setting": "[1]; FIG. 3, listed as Novobiocin", "value": "selectively kills HR-deficient cells as strongly as PARP inhibitor"}
    ]}
  ]
}
